Source: publication PMC6864627, “Synthesis of Novel Triazinoindole-Based Thiourea Hybrid: A Study on α-Glucosidase Inhibitors and Their Molecular Docking” (Molecules, 2019)

Biological target: T1, α-glucosidase (Saccharomyces cerevisiae, UniProt P53341)
T1 construct: purchased Sigma Inc
Experiment: α-glucosidase inhibition assay
Format: biochemical
Conditions: 50 mM phosphate buffer pH 6.8; 0.057 units enzyme; standard acarbose
Description: The α-glucosidase activity was executed according to Fazal et al.. The following chemicals were used (concentrations): • 70 μL of 50 mM phosphate buffer (pH 6.8); • 10 μL (0.5 mM in methanol) test compounds; and • 10 μL (0.057 units, Sigma Inc.) of enzyme solution in buffer. For details on the experiment, kindly see Reference.

T1 sequence (P53341 whole entry): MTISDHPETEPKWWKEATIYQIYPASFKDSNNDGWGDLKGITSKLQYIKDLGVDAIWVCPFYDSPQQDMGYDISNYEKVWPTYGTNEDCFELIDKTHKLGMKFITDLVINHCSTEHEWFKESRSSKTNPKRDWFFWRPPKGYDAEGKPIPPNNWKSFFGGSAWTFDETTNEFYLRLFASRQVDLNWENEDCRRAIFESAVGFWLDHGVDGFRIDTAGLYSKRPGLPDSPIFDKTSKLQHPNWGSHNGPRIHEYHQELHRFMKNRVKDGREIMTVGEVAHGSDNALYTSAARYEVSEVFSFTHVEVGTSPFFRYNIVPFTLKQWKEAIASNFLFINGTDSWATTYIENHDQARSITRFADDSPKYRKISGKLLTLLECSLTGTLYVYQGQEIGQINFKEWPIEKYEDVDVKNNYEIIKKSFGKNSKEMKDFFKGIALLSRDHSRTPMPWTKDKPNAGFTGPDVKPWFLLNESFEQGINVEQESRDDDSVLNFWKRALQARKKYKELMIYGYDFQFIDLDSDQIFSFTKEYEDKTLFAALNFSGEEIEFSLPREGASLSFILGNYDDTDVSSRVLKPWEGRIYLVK

Row | Structure (SMILES) | IC50
1 | COc1ccc(C(CSc2nnc3c(n2)[nH]c2ccccc23)=NNC(=S)Nc2cccc(Cl)c2Cl)cc1 [Compound 1, 2-(2-((5H-[1,2,4]triazino [5,6-b]indol-3-yl)thio)-1-(4-methoxyphenyl)ethylidene)-N-(2,3-dichlorophenyl)hydrazine-1-carbothioamide] | 1.3 ± 0.05 µM
2 | COc1ccc(C(CSc2nnc3c(n2)[nH]c2ccccc23)=NNC(=S)Nc2ccc([N+](=O)[O-])cc2)cc1 [Compound 2, 2-(2-((5H-[1,2,4]triazino [5,6-b]indol-3-yl)thio)-1-(4-methoxyphenyl)ethylidene)-N-(4-nitrophenyl)hydrazine-1-carbothioamide] | 2.6 ± 0.05 µM
3 | S=C(NN=C(CSc1nnc2c(n1)[nH]c1ccccc12)c1ccc(-c2ccccc2)cc1)Nc1cccc(Cl)c1Cl [Compound 3, 2-(2-((5H-[1,2,4]triazino [5,6-b]indol-3-yl)thio)-1-([1,1′-biphenyl]-4-yl)ethylidene)-N-(2,3-dichlorophenyl)hydrazine-1-carbothioamide] | 7.5 ± 0.2 µM
4 | Cc1ccc(NC(=S)NN=C(CSc2nnc3c(n2)[nH]c2ccccc23)c2ccc(-c3ccccc3)cc2)cc1 [Compound 4, 2-(2-((5H-[1,2,4]triazino[5,6-b]indol-3-yl)thio)-1-([1,1′-biphenyl]-4-yl)ethylidene)-N-(p-tolyl)hydrazine-1-carbothioamide] | 12.8 ± 0.3 µM
5 | COc1ccc(C(CSc2nnc3c(n2)[nH]c2ccccc23)=NNC(=S)Nc2ccc(C)cc2)cc1 [Compound 5, 2-(2-((5H-[1,2,4]triazino[5,6-b]indol-3-yl)thio)-1-(4-methoxyphenyl)ethylidene)-N-(p-tolyl)hydrazine-1-carbothioamide] | 5.2 ± 0.3 µM
6 | S=C(NN=C(CSc1nnc2c(n1)[nH]c1ccccc12)c1ccc(-c2ccccc2)cc1)Nc1ccccc1Br [Compound 6, 2-(2-((5H-[1,2,4]triazino[5,6-b]indol-3-yl)thio)-1-([1,1′-biphenyl]-4-yl)ethylidene)-N-(2-bromophenyl)hydrazine-1-carbothioamide] | 25.3 ± 0.5 µM
7 | Cc1ccc(C(CSc2nnc3c(n2)[nH]c2ccccc23)=NNC(=S)Nc2ccccc2Br)cc1 [Compound 7, 2-(2-((5H-[1,2,4]triazino[5,6-b]indol-3-yl)thio)-1-(p-tolyl)ethylidene)-N-(2-bromophenyl)hydrazine-1-carbothioamide] | 33.3 ± 0.6 µM
8 | Cc1ccc(NC(=S)NN=C(CSc2nnc3c(n2)[nH]c2ccccc23)c2ccc(C)cc2)cc1 [Compound 8, 2-(2-((5H-[1,2,4]triazino[5,6-b]indol-3-yl)thio)-1-(p-tolyl)ethylidene)-N-(p-tolyl)hydrazine-1-carbothioamide] | 17.5 ± 0.3 µM
9 | O=[N+]([O-])c1ccc(C(CSc2nnc3c(n2)[nH]c2ccccc23)=NNC(=S)Nc2ccccc2)cc1 [Compound 9, 2-(2-((5H-[1,2,4]triazino[5,6-b]indol-3-yl)thio)-1-(4-nitrophenyl)ethylidene)-N-phenylhydrazine-1-carbothioamide] | 6.8 ± 0.1 µM
10 | COc1ccc(C(CSc2nnc3c(n2)[nH]c2ccccc23)=NNC(=S)Nc2ccccc2Br)cc1 [Compound 10, 2-(2-((5H-[1,2,4]triazino[5,6-b]indol-3-yl)thio)-1-(4-methoxyphenyl)ethylidene)-N-(2-bromophenyl)hydrazine-1-carbothioamide] | 35.8 ± 0.8 µM
11 | O=[N+]([O-])c1cccc(C(CSc2nnc3c(n2)[nH]c2ccccc23)=NNC(=S)Nc2ccccc2Br)c1 [Compound 11, 2-(2-((5H-[1,2,4]triazino[5,6-b]indol-3-yl)thio)-1-(3-nitrophenyl)ethylidene)-N-(2-bromophenyl)hydrazine-1-carbothioamide] | 26.8 ± 0.7 µM
12 | Cc1ccc(NC(=S)NN=C(CSc2nnc3c(n2)[nH]c2ccccc23)c2cccc([N+](=O)[O-])c2)cc1 [Compound 12, 2-(2-((5H-[1,2,4]triazino[5,6-b]indol-3-yl)thio)-1-(3-nitrophenyl)ethylidene)-N-(p-tolyl)hydrazine-1-carbothioamide] | 8.3 ± 0.2 µM
13 | Cc1cccc(C)c1NC(=S)NN=C(CSc1nnc2c(n1)[nH]c1ccccc12)c1ccc(-c2ccccc2)cc1 [Compound 13, 2-(2-((5H-[1,2,4]triazino[5,6-b]indol-3-yl)thio)-1-([1,1′-biphenyl]-4-yl)ethylidene)-N-(2,6-dimethylphenyl)hydrazine-1-carbothioamide] | 23.3 ± 0.5 µM
14 | Cc1cccc(C)c1NC(=S)NN=C(CSc1nnc2c(n1)[nH]c1ccccc12)c1cccc([N+](=O)[O-])c1 [Compound 14, 2-(2-((5H-[1,2,4]triazino[5,6-b]indol-3-yl)thio)-1-(3-nitrophenyl)ethylidene)-N-(2,6-dimethylphenyl)hydrazine-1-carbothioamide] | 7.5 ± 0.2 µM
15 | COc1ccc(C(CSc2nnc3c(n2)[nH]c2ccccc23)=NNC(=S)Nc2c(C)cccc2C)cc1 [Compound 15, 2-(2-((5H-[1,2,4]triazino[5,6-b]indol-3-yl)thio)-1-(4-methoxyphenyl)ethylidene)-N-(2,6-dimethylphenyl)hydrazine-1-carbothioamide] | 5.8 ± 0.2 µM
16 | COc1ccc(C(CSc2nnc3c(n2)[nH]c2ccccc23)=NNC(=S)Nc2ccc(F)cc2)cc1 [Compound 16, 2-(2-((5H-[1,2,4]triazino[5,6-b]indol-3-yl)thio)-1-(4-methoxyphenyl)ethylidene)-N-(4-fluorophenyl)hydrazine-1-carbothioamide] | 1.8 ± 0.2 µM
17 | O=[N+]([O-])c1cccc(C(CSc2nnc3c(n2)[nH]c2ccccc23)=NNC(=S)Nc2ccccc2)c1 [Compound 17, 2-(2-((5H-[1,2,4]triazino[5,6-b]indol-3-yl)thio)-1-(3-nitrophenyl)ethylidene)-N-phenylhydrazine-1-carbothioamide] | 8.8 ± 0.2 µM
18 | COc1ccc(C(CSc2nnc3c(n2)[nH]c2ccccc23)=NNC(=S)Nc2ccc(Cl)c(Cl)c2)cc1 [Compound 18, 2-(2-((5H-[1,2,4]triazino[5,6-b]indol-3-yl)thio)-1-(4-methoxyphenyl)ethylidene)-N-(3,4-dichlorophenyl)hydrazine-1-carbothioamide] | 2.3 ± 0.05 µM
19 | S=C(NN=C(CSc1nnc2c(n1)[nH]c1ccccc12)c1ccc(-c2ccccc2)cc1)Nc1ccc(Cl)c(Cl)c1 [Compound 19, 2-(2-((5H-[1,2,4]triazino[5,6-b]indol-3-yl)thio)-1-([1,1′-biphenyl]-4-yl)ethylidene)-N-(3,4-dichlorophenyl)hydrazine-1-carbothioamide] | 2.3 ± 0.05 µM
20 | Cc1ccc(C(CSc2nnc3c(n2)[nH]c2ccccc23)=NNC(=S)Nc2c(C)cccc2C)cc1 [Compound 20, 2-(2-((5H-[1,2,4]triazino[5,6-b]indol-3-yl)thio)-1-(p-tolyl)ethylidene)-N-(2,6-dimethylphenyl)hydrazine-1-carbothioamide] | 7.5 ± 0.2 µM
21 | Cc1ccc(C(CSc2nnc3c(n2)[nH]c2ccccc23)=NNC(=S)Nc2ccc(Cl)c(Cl)c2)cc1 [Compound 21, 2-(2-((5H-[1,2,4]triazino[5,6-b]indol-3-yl)thio)-1-(p-tolyl)ethylidene)-N-(3,4-dichlorophenyl)hydrazine-1-carbothioamide] | 4.8 ± 0.2 µM
22 | COc1ccc(C(CSc2nnc3c(n2)[nH]c2ccccc23)=NNC(=S)Nc2cccc(C)c2C)cc1 [Compound 22, 2-(2-((5H-[1,2,4]triazino[5,6-b]indol-3-yl)thio)-1-(4-methoxyphenyl)ethylidene)-N-(2,3-dimethylphenyl)hydrazine-1-carbothioamide] | 5.9 ± 0.1 µM
23 | O=[N+]([O-])c1cccc(C(CSc2nnc3c(n2)[nH]c2ccccc23)=NNC(=S)Nc2cccc(Cl)c2Cl)c1 [Compound 23, 2-(2-((5H-[1,2,4]triazino[5,6-b]indol-3-yl)thio)-1-(3-nitrophenyl)ethylidene)-N-(2,3-dichlorophenyl)hydrazine-1-carbothioamide] | 1.3 ± 0.01 µM
24 | S=C(NN=C(CSc1nnc2c(n1)[nH]c1ccccc12)c1ccc(-c2ccccc2)cc1)Nc1ccccc1 [Compound 24, 2-(2-((5H-[1,2,4]triazino[5,6-b]indol-3-yl)thio)-1-([1,1′-biphenyl]-4-yl)ethylidene)-N-phenylhydrazine-1-carbothioamide] | 15.3 ± 0.3 µM
25 | COc1ccc(C(CSc2nnc3c(n2)[nH]c2ccccc23)=NNC(=S)Nc2ccccc2)cc1 [Compound 25, 2-(2-((5H-[1,2,4]triazino[5,6-b]indol-3-yl)thio)-1-(4-methoxyphenyl)ethylidene)-N-phenylhydrazine-1-carbothioamide] | 9.3 ± 0.3 µM
